Structures are written as SMILES.

The record followed here is patent US6465655B1, “Antibody to and assay for peptide linked-pyridinoline as indicator of bone resorption level” (Serex, Inc., priority 1997, dated 2002).

The test system of this assay is Serex 51A93. The experiment in a line: ELISA plate inhibition studies of Serex 51A93 by calibrators (Osteomark BCE, Metra free pyridinoline). It counts as binding. On the procedure:
The immunoreactivities of 51A93 and 1H11 with the calibrators and ELISA plates in the Osteomark kit and Pyrilinks Metra kit were compared. Two studies were carried out using ELISA plate assays.
In the first study, BCE calibrators from the Osteomark Kit and free pyridinoline (Pyd) from Metra were tested at different concentrations to see if either of them inhibits 51A93. Abbreviations are BCE, bone collagen equivalents; %Bo, percent bound at 0 concentration of analyte (as analyte in sample binds to antibody, the percent Bo decreases).

Consider `N[C@@H](CC[C@@H](O)C[n+]1cc(O)c(C[C@H](N)C(=O)O)c(CC[C@H](N)C(=O)O)c1)C(=O)[O-]` [Pyd, pyridinoline], for which the “% B0” value reads like this: (Pyd 0.001 mg/ml) 87%; (Pyd 0.01 mg/ml) 85%; (Pyd 0.1 mg/ml) 89%; (Pyd 1 mg/ml) 83%. The “A 450” value (Pyd 0.001 mg/ml) is listed as 1,302, the “A 450” value (Pyd 0.01 mg/ml) is recorded as 1,275, the “A 450” value (Pyd 0.1 mg/ml) is given as 1,327 and the “A 450” value (Pyd 1 mg/ml) was 1,249. For the same compound, for the setting “even at high levels”, the “inhibition of Mab 51A93 by calibrator” value is on record as “slightly inhibited”.
